Converted amounts (≈) assume the structure as drawn.
What was measured:
Candida albicans = test: Minimum inhibitory concentration against Candida albicans; format: functional
Nakaseomyces glabratus = test: Minimum inhibitory concentration against Candida glabrata; format: functional
[1] = Therapeutic index (CC50/MIC) was determined
HEp-2 = test: Cytotoxicity was evaluated against Hep-2 cells in vitro; format: functional; settings: Homo sapiens
Cryptococcus neoformans = test: In vitro minimum inhibitory concentration against […]

Structure (SMILES) | MIC (Candida albicans) [µg/mL] | MIC (Nakaseomyces glabratus) [µg/mL] | Therapeutic index [1] | CC50 (HEp-2) [µg/mL] | MIC (Cryptococcus neoformans) [µg/mL]
CCC(C)(C)CC1CC(C23C[C@@H]4[C@H](C)CC[C@H]4C4(C=O)CC2C=C(C(C)C)[C@@]34C(=O)O)=NO1 (stereo not given in full) | 4 (≈ 8.78 µM) | 1 (≈ 2.19 µM) |  |  | 
CC(C)C1=CC2CC3(C=O)[C@@H]4CC[C@@H](C)[C@H]4CC2(C2=NOC(CC#N)C2)[C@]13C(=O)O (stereo not given in full) | 128 (≈ 312 µM) | 128 (≈ 312 µM) |  |  | 
CC(C)C1=CC2CC3(C=O)[C@@H]4CC[C@@H](C)[C@H]4CC2(c2cc(CO)on2)[C@]13C(=O)O | > 128 | > 128 |  |  | 
CCCCC1CC(C23C[C@@H]4[C@H](C)CC[C@H]4C4(C=O)CC2C=C(C(C)C)[C@@]34C(=O)O)=NO1 (stereo not given in full) | 2 (≈ 4.68 µM) | 2 (≈ 4.68 µM) |  |  | 
CC(C)=CCO/N=C/C12C[C@@H]3[C@H](C)CC[C@H]3C3(C=O)CC1C=C(C(C)C)[C@@]23C(=O)O | 1 (≈ 2.42 µM) | 1 (≈ 2.42 µM) | 4.5 | 4.5 (≈ 10.9 µM) | 
CC(C)C1=CC2CC3(C=O)[C@@H]4CC[C@@H](C)[C@H]4CC2(/C=N/OCC2CCCCO2)[C@]13C(=O)O (stereo not given in full) | 2 (≈ 4.51 µM) | 8 (≈ 18 µM) | 4.5 | 9 (≈ 20.3 µM) | 
CCOCCO/N=C/C12C[C@@H]3[C@H](C)CC[C@H]3C3(C=O)CC1C=C(C(C)C)[C@@]23C(=O)O | 16 (≈ 38.3 µM) | 16 (≈ 38.3 µM) | 1.4 | 22 (≈ 52.7 µM) | 
CCOC(=O)C1CC(C23C[C@@H]4[C@H](C)CC[C@H]4C4(C=O)CC2C=C(C(C)C)[C@@]34C(=O)O)=NO1 (stereo not given in full) | 8 (≈ 18 µM) | 4 (≈ 9.02 µM) |  |  | 
CC(C)C1=CC2CC3(C=O)[C@@H]4CC[C@@H](C)[C@H]4CC2(/C=N/OCC2CCCCC2)[C@]13C(=O)O | 0.25 (≈ 0.566 µM) | 1 (≈ 2.26 µM) | 2.4 | 0.6 (≈ 1.36 µM) | 
CC[C@@H](C)CO/N=C/C12C[C@@H]3[C@H](C)CC[C@H]3C3(C=O)CC1C=C(C(C)C)[C@@]23C(=O)O | 0.25 (≈ 0.602 µM) | 0.5 (≈ 1.2 µM) | 11 | 2.7 (≈ 6.5 µM) | 
CCCCCO/N=C/C12C[C@@H]3[C@H](C)CC[C@H]3C3(C=O)CC1C=C(C(C)C)[C@@]23C(=O)O | 0.06 (≈ 0.144 µM) | 0.06 (≈ 0.144 µM) | 92 | 5.5 (≈ 13.2 µM) | 64 (≈ 154 µM)
CC(C)CO/N=C/C12C[C@@H]3[C@H](C)CC[C@H]3C3(C=O)CC1C=C(C(C)C)[C@@]23C(=O)O | 0.5 (≈ 1.25 µM) | 0.5 (≈ 1.25 µM) | 70 | 35 (≈ 87.2 µM) | 
CC#CCO/N=C/C12C[C@@H]3[C@H](C)CC[C@H]3C3(C=O)CC1C=C(C(C)C)[C@@]23C(=O)O | 8 (≈ 20.1 µM) | 32 (≈ 80.5 µM) | 2 | 16 (≈ 40.3 µM) | 
CC(C)C1=CC2CC3(C=O)[C@@H]4CC[C@@H](C)[C@H]4CC2(C2=NOC4OCCC24)[C@]13C(=O)O (stereo not given in full) | > 128 | 8 (≈ 19.3 µM) |  |  | 
CC(C)CCC1CC(C23C[C@@H]4[C@H](C)CC[C@H]4C4(C=O)CC2C=C(C(C)C)[C@@]34C(=O)O)=NO1 (stereo not given in full) | 1 (≈ 2.26 µM) | 4 (≈ 9.06 µM) |  |  | 
CC(C)C1=CC2CC3(C=O)[C@@H]4CC[C@@H](C)[C@H]4CC2(C2=NOC(CN4CCOCC4)C2)[C@]13C(=O)O (stereo not given in full) | 16 (≈ 34 µM) | > 128 |  |  | 
CC(C)C1=CC2CC3(C=O)[C@@H]4CC[C@@H](C)[C@H]4CC2(C2=NOC(C4CCCCC4)C2)[C@]13C(=O)O (stereo not given in full) | 2 (≈ 4.41 µM) | 2 (≈ 4.41 µM) |  |  | 

Structure (SMILES) | MIC (Candida albicans) [µg/mL] | MIC (Nakaseomyces glabratus) [µg/mL] | Therapeutic index [1] | CC50 (HEp-2) [µg/mL] | MIC (Cryptococcus neoformans) [µg/mL]
CC(C)C1=CC2CC3(C=O)[C@@H]4CC[C@@H](C)[C@H]4CC2(C2=NOC4CCCCC24)[C@]13C(=O)O (stereo not given in full) | > 128 | 1 (≈ 2.35 µM) |  |  | 
Cc1ccccc1CO/N=C/C12C[C@@H]3[C@H](C)CC[C@H]3C3(C=O)CC1C=C(C(C)C)[C@@]23C(=O)O | 16 (≈ 35.6 µM) | 16 (≈ 35.6 µM) |  |  | 
CC(C)C1=CC2CC3(C=O)[C@@H]4CC[C@@H](C)[C@H]4CC2(C2=NOC(CO)C2)[C@]13C(=O)O (stereo not given in full) | > 128 | > 128 |  |  | 
CC(C)C1=CC2CC3(C=O)[C@@H]4CC[C@@H](C)[C@H]4CC2(/C=N/OCCCC(F)(F)F)[C@]13C(=O)O | 1 (≈ 2.2 µM) | 4 (≈ 8.78 µM) | 1.9 | 1.9 (≈ 4.17 µM) | 
CC(C)C1=CC2CC3(C=O)[C@@H]4CC[C@@H](C)[C@H]4CC2(C2=NOC(CC(C)(C)C)C2)[C@]13C(=O)O (stereo not given in full) | 2 (≈ 4.53 µM) | 1 (≈ 2.26 µM) |  |  | 
CC(C)C1=CC2CC3(C=O)[C@@H]4CC[C@@H](C)[C@H]4CC2(CO)[C@]13C(=O)O | > 128 | > 128 |  |  | 
CC(C)C1=CC2CC3(C=O)[C@@H]4CC[C@@H](C)[C@H]4CC2(C2=NOC(c4ccccc4)C2)[C@]13C(=O)O (stereo not given in full) | 16 (≈ 35.7 µM) | 2 (≈ 4.47 µM) |  |  | 
COCCOCCO/N=C/C12C[C@@H]3[C@H](C)CC[C@H]3C3(C=O)CC1C=C(C(C)C)[C@@]23C(=O)O | 8 (≈ 17.9 µM) | 128 (≈ 286 µM) | 5.7 | 46 (≈ 103 µM) | 
CCCCOC1CC(C23C[C@@H]4[C@H](C)CC[C@H]4C4(C=O)CC2C=C(C(C)C)[C@@]34C(=O)O)=NO1 (stereo not given in full) | 1 (≈ 2.25 µM) | 8 (≈ 18 µM) |  |  | 
Cc1noc(C)c1CO/N=C/C12C[C@@H]3[C@H](C)CC[C@H]3C3(C=O)CC1C=C(C(C)C)[C@@]23C(=O)O | > 128 | 128 (≈ 282 µM) |  |  | 
CC(C)C1=CC2CC3(C=O)[C@@H]4CC[C@@H](C)[C@H]4CC2(/C=N/OC2CCCCO2)[C@]13C(=O)O (stereo not given in full) | 0.5 (≈ 1.16 µM) | 1 (≈ 2.33 µM) | 66 | 33 (≈ 76.8 µM) | 
CC(C)C1=CC2CC3(C=O)[C@@H]4CC[C@@H](C)[C@H]4CC2(/C=N/OCc2ccccc2Cl)[C@]13C(=O)O | 2 (≈ 4.26 µM) | 8 (≈ 17 µM) | 0.7 | 1.4 (≈ 2.98 µM) | 
CC(C)CCO/N=C/C12C[C@@H]3[C@H](C)CC[C@H]3C3(C=O)CC1C=C(C(C)C)[C@@]23C(=O)O | 0.5 (≈ 1.2 µM) | 1 (≈ 2.41 µM) | 8 | 4 (≈ 9.63 µM) | 
CC(C)C1=CC2CC3(C=O)[C@@H]4CC[C@@H](C)[C@H]4CC2(C2=NOC4C2CCN4Cc2ccccc2)[C@]13C(=O)O (stereo not given in full) | > 128 | > 128 |  |  | 
CC(C)C1=CC2CC3(C=O)[C@@H]4CC[C@@H](C)[C@H]4CC2(c2cc(-c4ccccc4)on2)[C@]13C(=O)O | 8 (≈ 18 µM) | 0.25 (≈ 0.561 µM) |  |  | 
COC1C(O)[C@H](O)[C@H](OC[C@@]23C[C@@H]4[C@H](C)CC[C@H]4[C@@]4(C=O)CC2C=C(C(C)C)[C@@]34C(=O)O)O[C@@H]1C (single isomer, unassigned) [SORDARIN] | 16 (≈ 32.5 µM) | > 128 | 10 | 167 (≈ 339 µM) | 

Source: ChEMBL document CHEMBL1135251, “Oxime derivatives of sordaricin as potent antifungal agents” (Bioorg Med Chem Lett, 2002)
